# Assay results reported in patent US20210268056A1, “TAXODIONE FOR ITS USE FOR PROTECTING MUSCLE AND MEAT FROM OXIDATION” (CENTRE NATIONAL DE LA RECHERCHE SCIENTIFIQUE, priority 2018, published 2021).
# Entries after “also recorded” stand apart in the source; their conditions may differ.
# How the values were obtained:
# [1] = DPPH free radical scavenging assay; format: biochemical
# Procedure: Radical scavenging activity was evaluated using DPPH according to the method described by Morel et al. with some modifications (Morel, Landreau, Nguyen, Derbre, Grellier, Pape, et al., 2012). Tested extracts and standards were diluted in absolute ethanol at different concentrations. Ethanol was used as blank, and 10, 25, 50 and 75 μM Trolox were used as calibration solutions. Tested compounds or standard solutions (100 μL) were placed in 96-well plates in triplicate for each tested concentration. Absolute ethanol was added (75 μL). The reaction was initiated by adding 25 μL of freshly prepared DPPH solution (1 mM) to obtain a final volume of 200 μL/well. After 30 min in the dark at room temperature, absorbance was determined at 550 nm with a UVMAX Molecular Devices microtiter plate reader (MDS Inc., Toronto, Canada). Results were expressed as the effective concentration at which 50% of DPPH radicals were scavenged (EC50 in μg/mL). The results are the mean±standard deviation (SD) of three independent experiments (three wells per concentration for each experiment).
# human myoblasts [2] = test: H2O2-induced cell death in human myoblasts (Muse Count and Viability Kit); format: cell-based
# Procedure: The quadriceps muscle biopsy was from one healthy adult (AFM-BTR “Banque de tissus pour la recherche”). Myoblasts were purified from the muscle biopsy and were cultured on collagen-coated dishes in DMEM/F12 medium with 10% foetal bovine serum (FBS), 0.1% Ultroser G and 1 ng/ml of human basic fibroblast growth factor (proliferation medium), as previously described (Kitzmann, Bonnieu, Duret, Vernus, Barro, Laoudj-Chenivesse, et al., 2006). For cell differentiation, confluent cells were cultured in DMEM with 4% FBS for 3-5 days (differentiation medium).
# Myoblasts: Myoblasts were seeded in 35 mm collagen-coated dishes, cultured in proliferation medium, pre-incubated or not with the tested compounds for 24 h and then incubated or not with a lethal concentration of hydrogen peroxide (H2O2), a strong pro-oxidant/pro-apoptotic compound, for 24 h. […] Dead myoblasts were identified by staining with the Muse® Count and Viability Kit, and ROS was quantified with the Muse® Oxidative Stress Kit, followed by analysis with a Fluorescence Activated Cell Sorting (FACS) Muse apparatus (Millipore, France). […] As myotubes are too big for FACS analysis, H2O2 effect was determined by quantifying lactate dehydrogenase (LDH) activity, which is increased in the culture medium during tissue damage, using the LDH Cytotoxic Kit (ThermoFisher, France). […]
# human myoblasts [3] = test: ROS quantification in myoblasts (Muse Oxidative Stress Kit, FACS); format: cell-based
# Procedure: (§1) Myoblasts: Myoblasts were seeded in 35 mm collagen-coated dishes, cultured in proliferation medium, pre-incubated or not with the tested compounds for 24 h and then incubated or not with a lethal concentration of hydrogen peroxide (H2O2), a strong pro-oxidant/pro-apoptotic compound, for 24 h. The optimal H2O2 concentration was the concentration required to kill between 30% and 50% of all cells and was established before each experiment. In general, myoblasts were incubated with 120 μM H2O2. Dead myoblasts were identified by staining with the Muse® Count and Viability Kit, and ROS was quantified with the Muse® Oxidative Stress Kit, followed by analysis with a Fluorescence Activated Cell Sorting (FACS) Muse apparatus (Millipore, France). Myotubes: Myoblasts were seeded in 35 mm collagen-coated dishes, cultured in proliferation medium until confluence, and then switched to differentiation medium for 4 days. At day 2, cells were incubated with TX for 24 h prior to incubation with H2O2 for 24 h. […] As myotubes are too big for FACS analysis, H2O2 effect was determined by quantifying lactate dehydrogenase (LDH) activity, which is increased in the culture medium during tissue damage, using the LDH Cytotoxic Kit (ThermoFisher, France). In parallel, myotube cultures were loaded with a ROS-fluorescent probe (CellRox) followed by fluorescence quantification using a TECAN spectrophotometer.
# γH2AX = test: Western blot of phosphorylated γH2AX in myoblasts; format: cell-based, human
# Procedure: Myoblasts were seeded in 35 mm collagen-coated dishes, cultured in proliferation medium, pre-incubated or not with TX for 24 h and then incubated or not with 80 μM H2O2 for 24 h. Protein extracts were separated by SDS-PAGE gel electrophoresis and transferred to nitrocellulose membranes, blocked at room temperature with Odyssey blocking buffer (Eurobio, France) and probed with the rabbit polyclonal anti-Histone H1.4 (Sigma-Aldrich; 1/5000) and rabbit polyclonal anti-gamma H2AX (Cell signalling; 1/3000) antibodies followed by IRDye® 680RD and IRDye® 800RD secondary antibodies (Eurobio, France). Fluorescence was quantified with the Odyssey software. Data were normalized to […] expression.
# CHOP gene = test: RT-qPCR of CHOP gene expression in myoblasts; format: cell-based, human
# Procedure: Myoblasts were seeded in 35 mm collagen-coated dishes, cultured in proliferation medium, pre-incubated or not with TX for 24 h, and then incubated or not with a sub-lethal concentration of H2O2 (80 μM; to avoid interference with dead cells) for 24 h. Then, total RNA was isolated from muscle cells using the NucleoSpin RNA II Kit (Macherey-Nagel, Hoerdt, France). The RNA concentration of each sample was measured with an Eppendorf BioPhotometer. cDNA was prepared using the Verso cDNA Synthesis Kit (Thermo Scientific, Ilkirch, France).
# The expression of the CHOP (target) and RPLPO (control) genes was analysed by quantitative polymerase chain reaction (qPCR) on a LightCycler apparatus (Roche Diagnostics, Meylan, France), as previously described (El Haddad, Notarnicola, Evano, El Khatib, Blaquiere, Bonnieu, et al., 2017), using the following primers: […]
# human myotubes [4] = test: H2O2 toxicity in myotubes by lactate dehydrogenase (LDH) activity; format: cell-based; conditions: TX 0.5 μg/mL 24 h, then H2O2 (550 μM) 24 h, FIG. 4D
# Procedure: as §1
# human myotubes [5] = test: ROS in myotubes (CellRox probe, TECAN); format: cell-based; conditions: TX 0.5 μg/mL 24 h, then H2O2 (550 μM) 24 h, FIG. 4E
# [6] = tested on: Walker carcinosarcoma 256; conditions: Kupchan 1968; cited from earlier work
# HIV-1 protease = target: T1, HIV-1 protease (Human immunodeficiency virus type 1 group M subtype B, UniProt P04585); conditions: Ahmed 1999; cited from earlier work
# T1 construct: HIV-1 protease
# termites = conditions: Kusumoto 2009; cited from earlier work
# fungi = conditions: Kusumoto 2010; Machumi 2010; Bufalo 2016; cited from earlier work
# protein phosphatase 2C = conditions: Kusumoto 2014; cited from earlier work
# Leishmania = conditions: Naman 2016; Zhang 2012; Machumi 2010; Bufalo 2016; cited from earlier work
# Plasmodium = conditions: Zhang 2012; cited from earlier work
# microbes = conditions: Zhang 2012; Kuzma 2012; cited from earlier work
# protozoa = conditions: Mothana 2014; Kuzma 2017; cited from earlier work
# bacteria = conditions: Machumi 2010; Bufalo 2016; cited from earlier work
# acetylcholinesterase = acetylcholinesterase (Homo sapiens, UniProt P22303); conditions: Kuzma 2016; cited from earlier work
# [7] = Kolak 2009; cited from earlier work
# [8] = tested on: MOLT-4, HT-29, and MCF-7 cells; conditions: Mirzaei 2017; cited from earlier work
# colon cancer cells = conditions: isolated in mixture with [9]-shogaol from Rosmarinus officinalis leaves; Borras Linares 2015; cited from earlier work
# Sequence of acetylcholinesterase (P22303 32-614): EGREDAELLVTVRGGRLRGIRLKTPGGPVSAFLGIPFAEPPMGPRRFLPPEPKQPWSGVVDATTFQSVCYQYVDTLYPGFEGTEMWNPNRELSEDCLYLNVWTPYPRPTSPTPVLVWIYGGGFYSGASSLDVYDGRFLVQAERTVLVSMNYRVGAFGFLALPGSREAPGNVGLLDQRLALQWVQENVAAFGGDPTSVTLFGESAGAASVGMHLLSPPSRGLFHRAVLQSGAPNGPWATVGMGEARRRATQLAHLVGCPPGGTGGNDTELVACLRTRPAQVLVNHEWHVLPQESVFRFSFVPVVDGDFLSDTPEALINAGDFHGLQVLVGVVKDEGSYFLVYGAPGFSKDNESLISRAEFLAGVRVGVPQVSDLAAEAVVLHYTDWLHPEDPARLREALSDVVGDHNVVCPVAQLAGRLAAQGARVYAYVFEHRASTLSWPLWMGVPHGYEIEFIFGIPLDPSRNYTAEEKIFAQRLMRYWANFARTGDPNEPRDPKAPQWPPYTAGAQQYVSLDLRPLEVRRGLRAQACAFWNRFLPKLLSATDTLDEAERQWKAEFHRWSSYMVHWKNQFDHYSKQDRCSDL
compound,measurement,setting,value
"CC(C)c1cc2c(c(O)c1O)[C@@]1(C(=O)O)CCCC(C)(C)[C@@H]1CC2 [CA, carnosic acid]",DPPH free radical scavenging activity,[1],strong antioxidant capacities
"CC(C)c1cc2c(c(O)c1O)[C@@]13CCCC(C)(C)[C@@H]1C[C@@H]2OC3=O [CO, carnosol]",DPPH free radical scavenging activity,[1],strong antioxidant capacities
"CC1(C)CC(O)CC(C)(C)N1[O] [Tempol, reference compound]",protection against H2O2-induced cell death,"human myoblasts [2]; pre-incubation 24 h prior to lethal H2O2 (120 μM), Tempol 50 μM, RW all tested concentrations, FIG. 1A",protected human myoblasts efficiently
O=C(/C=C/c1ccc(O)c(O)c1)O[C@H](Cc1ccc(O)c(O)c1)C(=O)O [rosmarinic acid],DPPH free radical scavenging activity,[1],strong antioxidant capacities
"CC(C)C1=CC2=CC(=O)[C@H]3C(C)(C)CCC[C@]3(C)C2=C(O)C1=O [taxodione, (4bS,8aS)-4b,5,6,7,8,8a-hexahydro-4-hydroxy-2-isopropyl-4b,8,8-trimethylphenanthrene-3,9-dione]",antioxidant activity (H2O2-induced cell death) compared with CA and CO,"human myoblasts [2]; all tested concentrations, FIG. 3B",significantly more efficient
same,level of ROS after H2O2,"human myoblasts [3]; TX 0.5 μg/mL 24 h, then H2O2 24 h, FIG. 4A",reduced H2O2 effects
same,"level of ROS, TX alone",human myoblasts [3]; without H2O2,did not have any effect
same,level of γH2AX protein after H2O2,"γH2AX; TX 0.5 μg/mL 24 h, then 80 μM H2O2 24 h, FIG. 4B",reduced H2O2 effects
same,"level of γH2AX protein, TX alone",γH2AX; without H2O2,did not have any effect
same,level of CHOP mRNA after H2O2,"CHOP gene; TX 0.5 μg/mL 24 h, then 80 μM H2O2 24 h, FIG. 4C",reduced H2O2 effects
same,"level of CHOP mRNA, TX alone",CHOP gene; without H2O2,did not have any effect
same,LDH activity after H2O2,human myotubes [4],significantly reduced H2O2 effects
same,ROS level (CellRox) after H2O2,human myotubes [5],significantly reduced H2O2 effects
same,DPPH free radical scavenging activity,[1],low
same,inhibitory activity against Walker carcinosarcoma 256 in rats,[6],inhibitory activity
same,HIV-1 protease inhibitory activity,HIV-1 protease,low HIV-1 protease
same,Antitermitic activity (antifeedant effect),termites,Antitermitic activity
same,antifungal activity,fungi,Antifungal effects
same,protein phosphatase 2C inhibitor,protein phosphatase 2C,"2C inhibitor,"
same,anti-leishmanial activity,Leishmania,"anti-leishmanial,; also recorded: anti-leishmanial"
same,anti-plasmodial activity,Plasmodium,anti-plasmodial
same,antimicrobial activity,microbes,antimicrobial
same,antiprotozoal activity,protozoa,weak antiprotozoal
same,antibacterial activity,bacteria,antibacterial
same,acetylcholinesterase inhibition,acetylcholinesterase,inhibition
same,activity in O2 assay,[7],not active in O2 assay
same,"anti-proliferative activity in MOLT-4, HT-29, and MCF-7 cells",[8],anti-proliferative
same,anti-proliferative activity,colon cancer cells,anti-proliferative
